Laboratory results taken from ChEMBL document CHEMBL4477208, “Discovery and Rational Design of Pteridin-7(8H)-one-Based Inhibitors Targeting FMS-like Tyrosine Kinase 3 (FLT3) and Its Mutants” (J Med Chem, 2016).
The source made the active and inactive calls. The rule behind the calls is not given here.

Columns and labels:
[1] = system: WI-38; assay: cells; conditions: Homo sapiens, WI-38, 72 h
Description: Antiproliferative activity against human WI38 cells after 72 hrs by SRB assay

[2] = system: K562; assay: cells; conditions: Homo sapiens, K562, 72 h
Description: Antiproliferative activity against FLT3-deficient human K562 cells after 72 hrs by MTT assay

[3] = system: MV4-11; assay: cells; conditions: Homo sapiens, MV4-11, 72 h
Description: Antiproliferative activity against human MV4-11 cells harboring FLT3-ITD mutant after 72 hrs by MTT assay

[4] = molecular target: T1, Receptor-type tyrosine-protein kinase FLT3 (Homo sapiens, UniProt P36888)
T1 sequence (P36888 whole entry): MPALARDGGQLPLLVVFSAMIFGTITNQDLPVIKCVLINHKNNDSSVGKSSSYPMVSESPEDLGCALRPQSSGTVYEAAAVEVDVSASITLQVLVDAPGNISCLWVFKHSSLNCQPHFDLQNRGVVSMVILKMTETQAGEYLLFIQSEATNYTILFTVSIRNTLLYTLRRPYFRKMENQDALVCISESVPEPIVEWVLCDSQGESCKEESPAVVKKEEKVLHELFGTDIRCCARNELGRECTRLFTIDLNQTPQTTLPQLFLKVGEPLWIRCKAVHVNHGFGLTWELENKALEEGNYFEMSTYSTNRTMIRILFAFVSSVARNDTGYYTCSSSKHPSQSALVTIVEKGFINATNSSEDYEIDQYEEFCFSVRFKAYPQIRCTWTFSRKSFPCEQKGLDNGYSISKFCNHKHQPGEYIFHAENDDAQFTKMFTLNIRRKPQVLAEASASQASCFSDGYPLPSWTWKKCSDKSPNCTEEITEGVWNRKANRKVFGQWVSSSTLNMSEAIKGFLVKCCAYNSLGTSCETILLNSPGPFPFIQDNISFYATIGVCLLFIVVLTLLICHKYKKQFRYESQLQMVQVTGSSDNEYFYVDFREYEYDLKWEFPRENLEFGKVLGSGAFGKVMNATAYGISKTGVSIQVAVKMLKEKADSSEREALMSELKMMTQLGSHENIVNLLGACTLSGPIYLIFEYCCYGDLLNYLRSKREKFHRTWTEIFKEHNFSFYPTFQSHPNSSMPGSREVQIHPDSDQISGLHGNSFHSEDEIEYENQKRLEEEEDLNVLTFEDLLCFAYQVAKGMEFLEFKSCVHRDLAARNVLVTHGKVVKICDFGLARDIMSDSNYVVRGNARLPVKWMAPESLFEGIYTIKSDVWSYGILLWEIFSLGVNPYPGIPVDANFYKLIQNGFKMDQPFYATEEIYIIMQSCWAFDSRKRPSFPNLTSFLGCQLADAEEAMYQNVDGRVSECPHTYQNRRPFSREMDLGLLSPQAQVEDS
Description: Inhibition of human N-terminal GST-tagged FLT3 (564 to 993 residues) expressed in baculovirus expression system using peptide FAM-P2 as substrate incubated for 10 mins followed by substrate addition by mobility shift assay

[5] = system: MV4-11; assay: Cell cycle arrest in human MV4-11 cells at 1000 nM after 48 hrs by PI/RNase staining based FACS analysis; assay type: functional
[6] = system: MV4-11; assay: Induction of apoptosis in human MV4-11 cells at 1000 nM after 48 hrs by annexin V/propidium iodide staining based FACS analysis; assay type: functional, cell-based
[7] = molecular target: Receptor-type tyrosine-protein kinase FLT3 (Homo sapiens) (UniProt P36888); assay: Inhibition of FLT3 (unknown origin) at 10 uM
[8] = molecular target: Receptor-type tyrosine-protein kinase FLT3 (Homo sapiens) (UniProt P36888); assay: Inhibition of FLT3 (unknown origin) at 1 uM

| Compound | IC50 [2] [µM] | IC50 [3] [µM] | IC50 [4] [µM] | inhibition [7] [%] | inhibition [8] [%] | IC50 [1] [µM] | Activity [5] | Activity [6] |
| --- | --- | --- | --- | --- | --- | --- | --- | --- |
| C=CC(=O)Nc1cccc(-n2c(=O)cnc3cnc(Nc4ccc(N5CCCCC5)cc4)nc32)c1 | > 10 | > 10 | 1.75 |  |  | > 10 |  |  |
| CN1CCN(c2ccc(Nc3ncc4ncc(=O)n(-c5cccc(N)c5)c4n3)cc2)CC1 | > 10 | 0.383 |  |  |  | > 10 |  |  |
| C=CC(=O)Nc1cccc(-n2c(=O)cnc3cnc(Nc4ccc(N(CC)CC)cc4)nc32)c1 | > 10 | 5.56 | 1.06 |  |  | > 10 |  |  |
| C=CC(=O)Nc1cccc(-n2c(=O)cnc3cnc(Nc4ccccc4)nc32)c1 | > 10 | 5.51 | 2.92 |  |  | > 10 |  |  |
| COc1ccc(Nc2ncc3ncc(=O)n(-c4cccc(NC(=O)/C=C/CN(C)C)c4)c3n2)cc1 | > 10 | 2.72 |  |  |  | > 10 |  |  |
| CN1CCN(c2ccc(Nc3ncc4ncc(=O)n(-c5ccc(N)cc5)c4n3)cc2)CC1 | > 10 | 0.297 |  |  |  | > 10 | Active | Active |
| C=CC(=O)Nc1cccc(-n2c(=O)cnc3cnc(Nc4ccc(N5CCOCC5)cc4)nc32)c1 | > 10 | > 10 | 1.14 |  |  | > 10 |  |  |
| COc1ccc(Nc2ncc3ncc(=O)n(-c4ccc(NC(=O)/C=C/CN(C)C)cc4)c3n2)cc1 | > 10 | 2.17 | 0.184 |  |  | > 10 |  |  |
| COc1ccc(Nc2ncc3ncc(=O)n(-c4ccc(NS(C)(=O)=O)cc4)c3n2)cc1 | > 10 | 2.94 |  |  |  | > 10 |  |  |
| COc1ccc(Nc2ncc3ncc(=O)n(-c4ccc(NC(C)=O)cc4)c3n2)cc1 | > 10 | 3.88 |  |  |  | > 10 |  |  |
| CN1CCN(c2ccc(Nc3ncc4ncc(=O)n(-c5ccc(N)cc5)c4n3)cc2Cl)CC1 | > 10 | 0.098 |  |  |  | 3.49 |  |  |
| C=CC(=O)Nc1ccc(-n2c(=O)cnc3cnc(Nc4ccc(Cl)cc4)nc32)cc1 | > 10 | > 10 | 0.384 |  |  | > 10 |  |  |
| COc1ccc(Nc2ncc3ncc(=O)n(-c4ccc(N)cc4)c3n2)cc1 | > 10 | 6.89 | 0.029 |  |  | > 10 |  |  |
| CN1CCN(c2ccc(Nc3ncc4ncc(=O)n(-c5ccc(NS(C)(=O)=O)cc5)c4n3)cc2)CC1 | > 10 | 1.15 |  |  |  | > 10 |  |  |
| CN1CCN(c2ccc(Nc3ncc4ncc(=O)n(-c5ccc(N6CCNCC6)cc5)c4n3)cc2)CC1 | > 10 | 0.168 |  |  |  | > 10 |  |  |
| C=CC(=O)Nc1cccc(-n2c(=O)cnc3cnc(Nc4ccc(N5CCN(C)CC5)cc4OC)nc32)c1 | > 10 | 2.89 | 1.32 |  |  | 8.24 |  |  |

Further lines, with some results ahead:

| IC50 [2] [µM] | IC50 [3] [µM] | IC50 [4] [µM] | inhibition [7] [%] | inhibition [8] [%] | Compound | IC50 [1] [µM] | Activity [5] | Activity [6] |
| --- | --- | --- | --- | --- | --- | --- | --- | --- |
| > 10 | 3.49 | 0.173 |  |  | C=CC(=O)Nc1ccc(-n2c(=O)cnc3cnc(Nc4ccc(N5CCOCC5)cc4)nc32)cc1 | > 10 |  |  |
| > 10 | 1.95 |  |  |  | COc1ccc(Nc2ncc3ncc(=O)n(-c4ccc(N)cc4)c3n2)cc1Cl | > 10 |  |  |
| > 10 | > 10 | 0.165 |  |  | C=CC(=O)Nc1ccc(-n2c(=O)cnc3cnc(Nc4ccccc4)nc32)cc1 | > 10 |  |  |
| > 10 | 3.49 | 0.034 |  |  | COc1ccc(Nc2ncc3ncc(=O)n(-c4cccc(N)c4)c3n2)cc1 | > 10 |  |  |
| > 10 | 0.415 |  |  |  | CC(=O)Nc1ccc(-n2c(=O)cnc3cnc(Nc4ccc(N5CCN(C)CC5)cc4)nc32)cc1 | > 10 |  |  |
| > 10 | 0.814 | 0.153 |  |  | C=CC(=O)Nc1ccc(-n2c(=O)cnc3cnc(Nc4ccc(N5CCN(C)CC5)cc4OC)nc32)cc1 | > 10 |  |  |
| > 10 | 7.38 | 5.45 |  |  | C=CC(=O)Nc1cccc(-n2c(=O)cnc3cnc(Nc4ccc(NC(C)=O)cc4)nc32)c1 | > 10 |  |  |
| > 10 | 0.302 |  |  |  | COc1cc2c(N3CCN(C(=O)Nc4ccc(OC(C)C)cc4)CC3)ncnc2cc1OCCCN1CCCCC1 [TANDUTINIB] | > 10 |  |  |
| > 10 | 4.04 | 3.59 |  |  | C=CC(=O)Nc1cccc(-n2c(=O)cnc3cnc(Nc4ccc(Cl)cc4)nc32)c1 | > 10 |  |  |
| > 10 | 2.61 | 1.87 |  |  | C=CC(=O)Nc1cccc(-n2c(=O)cnc3cnc(Nc4ccc(OC)cc4)nc32)c1 | 8.71 |  |  |
| > 10 | 0.093 |  |  |  | COc1cc(Nc2ncc3ncc(=O)n(-c4ccc(N)cc4)c3n2)ccc1N1CCN(C)CC1 | > 10 |  |  |
| > 10 | 0.792 | 0.312 | 99 | 82 | C=CC(=O)Nc1cccc(-n2c(=O)cnc3cnc(Nc4ccc(N5CCN(C)CC5)cc4)nc32)c1 | > 10 |  |  |
| > 10 | 0.835 | 0.047 |  |  | C=CC(=O)Nc1ccc(-n2c(=O)cnc3cnc(Nc4ccc(N5CCN(C)CC5)cc4)nc32)cc1 | > 10 |  |  |
| > 10 | > 10 | 1.53 |  |  | C=CC(=O)Nc1cccc(-n2c(=O)cnc3cnc(Nc4ccc(N5CCCC5)cc4)nc32)c1 | > 10 |  |  |
| > 10 | > 10 |  |  |  | C=CC(=O)Nc1cccc(-n2c(=O)cnc3cnc(Nc4ccc(CC(N)=O)cc4)nc32)c1 | > 10 |  |  |
| > 10 | 6.04 |  |  |  | COc1ccc(Nc2ncc3ncc(=O)n(-c4ccc(N)cc4)c3n2)c(C)c1 | > 10 |  |  |
| 9.96 | 0.326 |  |  |  | CN1CCN(c2ccc(Nc3ncc4ncc(=O)n(-c5ccc(CN)cc5)c4n3)cc2)CC1 | > 10 |  |  |
| > 10 | 3.81 | 0.108 |  |  | C=CC(=O)Nc1ccc(-n2c(=O)cnc3cnc(Nc4ccc(OC)cc4)nc32)cc1 | > 10 |  |  |
| > 10 | 1.42 |  |  |  | CN1CCN(c2ccc(Nc3ncc4ncc(=O)n(-c5ccc(N)cc5)c4n3)cc2F)CC1 | > 10 |  |  |
